Columns and labels:
[1] = test system: HIV-1, NL4-3 strain; assay: Virus infection assay (virus entry and single-cycle infection); type: cell-based; conditions: Human immunodeficiency virus 1, NL43, TZM-b1, read-out: Nl4
How it was run: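 Single-cycle entry/infection read-out: β-galactosidase chemiluminescence measured one day after infection. Compounds were present during a 4 h, 37 °C exposure of TZM-b1 reporter cells to NL4-3 virus at MOI 0.01 plus DEAE-dextran (80 μg/mL final), followed by addition of complete medium.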

[2] = molecular target: T1, HIV Env six-helix bundle (6HB) structure (Human immunodeficiency virus type 1 group M subtype B, UniProt P04579); assay: Six-helix bundle (6HB) assay; type: cell-based, HIV-1 (strain RF)
T1 construct: H9 cells chronically infected with HIV-1 (H9/HIV-1RF); endogenous in cells; host or cells: H9 cells chronically infected with HIV-1 strain RF (Env is made from the virus in the infected cells, not by transfection)
T1 sequence (P04579 32-519): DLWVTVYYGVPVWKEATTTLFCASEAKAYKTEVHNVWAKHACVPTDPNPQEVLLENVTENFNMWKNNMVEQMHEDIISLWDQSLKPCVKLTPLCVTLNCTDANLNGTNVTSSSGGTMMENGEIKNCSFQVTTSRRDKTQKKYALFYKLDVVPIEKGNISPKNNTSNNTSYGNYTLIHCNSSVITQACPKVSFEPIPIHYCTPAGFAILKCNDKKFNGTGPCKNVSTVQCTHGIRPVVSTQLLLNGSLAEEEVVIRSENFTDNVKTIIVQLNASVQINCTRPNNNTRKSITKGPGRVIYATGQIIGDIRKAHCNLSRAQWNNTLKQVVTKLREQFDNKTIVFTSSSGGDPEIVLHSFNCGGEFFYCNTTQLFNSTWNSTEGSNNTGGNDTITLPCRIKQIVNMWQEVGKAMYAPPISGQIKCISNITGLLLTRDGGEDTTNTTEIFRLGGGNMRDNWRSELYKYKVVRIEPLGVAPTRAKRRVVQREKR
T1 sequence (P04579 520-865): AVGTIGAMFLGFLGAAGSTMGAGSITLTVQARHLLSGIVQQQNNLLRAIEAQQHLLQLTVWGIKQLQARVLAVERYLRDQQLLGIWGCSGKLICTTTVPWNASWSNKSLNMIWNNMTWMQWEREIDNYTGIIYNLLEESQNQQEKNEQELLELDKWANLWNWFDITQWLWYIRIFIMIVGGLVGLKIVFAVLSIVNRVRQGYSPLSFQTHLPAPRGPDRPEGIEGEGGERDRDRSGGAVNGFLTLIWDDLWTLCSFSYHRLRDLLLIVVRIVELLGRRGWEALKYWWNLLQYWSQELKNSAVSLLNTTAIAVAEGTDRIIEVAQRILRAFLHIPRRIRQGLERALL
How it was run: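 Flow cytometry measured binding of a six-helix-bundle-specific polyclonal antibody, detected with PE-labelled secondary at 4 °C for 45 min, on H9/HIV-1 RF chronically infected cells. Compound was given 30 min at 37 °C before 1 μg/mL soluble CD4 induction for 1 h. Inhibition appears as reduced fluorescence.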

Compound | IC50 [1] [µM] | IC50 [2] [µM]
COc1ccc(-c2nc3c(C(=O)N4CCN(C(CO)c5cccc(Cl)c5)C[C@H]4C)cnn3c(C(F)(F)F)c2C)cc1 (stereo partly drawn) [methanone, [(2R)-4-[1-(3-chlorophenyl)-2-hydroxyethyl]-2-methyl-1-piperazinyl][5-(4-methoxyphenyl)-6-methyl-7-(trifluoromethyl)pyrazolo[1,5-α]pyrimidin-3-yl]-] | < 1 | < 1
COc1ccc(-c2nc3c(C(=O)N4CCN(C(CO)c5ccccc5NC(=O)C(C)C)C[C@H]4C)cnn3c(C(F)(F)F)c2C)cc1 (stereo partly drawn) [propanamide, N-[2-[2-hydroxy-1-[(3R)-4-[[5-(4-methoxyphenyl)-6-methyl-7-(trifluoromethyl)pyrazolo[1,5-α]pyrimidin-3-yl]carbonyl]-3-methyl-1-piperazinyl]ethyl]phenyl]-2-methyl-] | > 10.1 | > 10.1
COc1ccc(-c2nc3c(C(=O)N4CCN(C(CO)c5cccc(C(N)=O)c5)C[C@H]4C)cnn3c(C(F)(F)F)c2C)cc1 (stereo partly drawn) [benzamide, 3-[2-hydroxy-1-[(3R)-4-[[5-(4-methoxyphenyl)-6-methyl-7-(trifluoromethyl)pyrazolo[1,5-α]pyrimidin-3-yl]carbonyl]-3-methyl-1-piperazinyl]ethyl]-] | < 1 | < 1
COc1ccc(-c2nc3c(C(=O)N4CCN(C(CO)c5cc(F)cc(OC)c5)C[C@H]4C)cnn3c(C(F)(F)F)c2C)cc1 (stereo partly drawn) [methanone, [(2R)-4-[1-(3-fluoro-5-methoxyphenyl)-2-hydroxyethyl]-2-methyl-1-piperazinyl][5-(4-methoxyphenyl)-6-methyl-7-(trifluoromethyl)pyrazolo[1,5-α]pyrimidin-3-yl]-] | < 1 | < 1
COc1ccc(-c2nc3c(C(=O)N4CCN(C(CO)c5ccccc5Br)C[C@H]4C)cnn3c(C(F)(F)F)c2C)cc1 (stereo partly drawn) [methanone, [(2R)-4-[1-(2-bromophenyl)-2-hydroxyethyl]-2-methyl-1-piperazinyl][5-(4-methoxyphenyl)-6-methyl-7-(trifluoromethyl)pyrazolo[1,5-α]pyrimidin-3-yl]-] | < 1 | < 1
COc1ccc(-c2nc3c(C(=O)N4CCN(C(CO)c5cc(F)cc(F)c5)C[C@H]4C)cnn3c(C(F)(F)F)c2C)cc1 (stereo partly drawn) [methanone, [(2R)-4-[1-(3,5-difluorophenyl)-2-hydroxyethyl]-2-methyl-1-piperazinyl][5-(4-methoxyphenyl)-6-methyl-7-(trifluoromethyl)pyrazolo[1,5-α]pyrimidin-3-yl]-] | < 1 | < 1
COc1ccc(-c2nc3c(C(=O)N4CCN(C(CO)c5cnc(OC)nc5)C[C@H]4C)cnn3c(C(F)(F)F)c2C)cc1 (stereo partly drawn) [methanone, [(2R)-4-[2-hydroxy-1-(2-methoxy-5-pyrimidinyl)ethyl]-2-methyl-1-piperazinyl][5-(4-methoxyphenyl)-6-methyl-7-(trifluoromethyl)pyrazolo[1,5-α]pyrimidin-3-yl]-] | < 1 | < 1
CNC(=O)C(c1ccccc1)N1CCN(C(=O)c2cnn3c(C(F)(F)F)c(C)c(-c4ccc(OC)cc4)nc23)[C@H](C)C1 (stereo partly drawn) [1-piperazineacetamide, 4-[[5-(4-methoxyphenyl)-6-methyl-7-(trifluoromethyl)pyrazolo[1,5-α]pyrimidin-3-yl]carbonyl]-N,3-dimethyl-α-phenyl-, (3R)-] | < 1 | < 1
COc1ccc(-c2nc3c(C(=O)N4CCN(C(CO)c5ccc(OC)nc5OC)C[C@H]4C)cnn3c(C(F)(F)F)c2C)cc1 (stereo partly drawn) [methanone, [(2R)-4-[1-(2,6-dimethoxy-3-pyridinyl)-2-hydroxyethyl]-2-methyl-1-piperazinyl][5-(4-methoxyphenyl)-6-methyl-7-(trifluoromethyl)pyrazolo[1,5-α]pyrimidin-3-yl]-] | < 1 | < 1
COc1ccc(-c2nc3c(C(=O)N4CCN([C@@H](CO)c5ccc(Cl)s5)C[C@H]4C)cnn3c(C(F)(F)F)c2C)cc1 [methanone, [(2R)-4-[(1S)-1-(5-chloro-2-thienyl)-2-hydroxyethyl]-2-methyl-1-piperazinyl][5-(4-methoxyphenyl)-6-methyl-7-(trifluoromethyl)pyrazolo[1,5-α]pyrimidin-3-yl]-] | < 1 | < 1
COc1ccc(-c2nc3c(C(=O)N4CCN([C@@H](C)c5ccn(C)n5)C[C@H]4C)cnn3c(C(F)(F)F)c2C)cc1 [methanone, [5-(4-methoxyphenyl)-6-methyl-7-(trifluoromethyl)pyrazolo[1,5-α]pyrimidin-3-yl][(2R)-2-methyl-4-[(1S)-1-(1-methyl-1H-pyrazol-3-yl)ethyl]-1-piperazinyl]-] | < 1 | 1.1 to 10
COc1ccc(-c2nc3c(C(=O)N4CCN(C(CO)c5ccc(C(C)=O)s5)C[C@H]4C)cnn3c(C(F)(F)F)c2C)cc1 (stereo partly shown) | < 1 | 1.1 to 10
COc1ccc(-c2nc3c(C(=O)N4CCN(C(CO)c5ccccc5C#N)C[C@H]4C)cnn3c(C(F)(F)F)c2C)cc1 (stereo partly drawn) [benzonitrile, 2-[2-hydroxy-1-[(3R)-4-[[5-(4-methoxyphenyl)-6-methyl-7-(trifluoromethyl)pyrazolo[1,5-α]pyrimidin-3-yl]carbonyl]-3-methyl-1-piperazinyl]ethyl]-] | < 1 | < 1
COc1ccc(-c2nc3c(C(=O)N4CCN(C(CO)c5cccc(S(C)(=O)=O)c5)C[C@H]4C)cnn3c(C(F)(F)F)c2C)cc1 (stereo partly drawn) [methanone, [(2R)-4-[2-hydroxy-1-[3-(methylsulfonyl)phenyl]ethyl]-2-methyl-1-piperazinyl][5-(4-methoxyphenyl)-6-methyl-7-(trifluoromethyl)pyrazolo[1,5-α]pyrimidin-3-yl]-] | > 10.1 | > 10.1
COc1ccc(-c2nc3c(C(=O)N4CCN(C(CO)c5cccc(NC(=O)C(C)C)c5)C[C@H]4C)cnn3c(C(F)(F)F)c2C)cc1 (stereo partly drawn) [propanamide, N-[3-[2-hydroxy-1-[(3R)-4-[[5-(4-methoxyphenyl)-6-methyl-7-(trifluoromethyl)pyrazolo[1,5-α]pyrimidin-3-yl]carbonyl]-3-methyl-1-piperazinyl]ethyl]phenyl]-2-methyl-] | 1.1 to 10 | < 1
COc1ccc(-c2nc3c(C(=O)N4CCN(C(CO)c5ccccc5)CC4)cnn3c(C(F)(F)F)c2C)cc1 (stereo not drawn) [methanone, [4-(2-hydroxy-1-phenylethyl)-1-piperazinyl][5-(4-methoxyphenyl)-6-methyl-7-(trifluoromethyl)pyrazolo[1,5-α]pyrimidin-3-yl]-] | < 1 | < 1
COc1ccc(-c2nc3c(C(=O)N4CCN([C@@H](CO)c5cccc(OC)c5F)C[C@H]4C)cnn3c(C(F)(F)F)c2C)cc1 [methanone, [(2R)-4-[(1R)-1-(2-fluoro-3-methoxyphenyl)-2-hydroxyethyl]-2-methyl-1-piperazinyl][5-(4-methoxyphenyl)-6-methyl-7-(trifluoromethyl)pyrazolo[1,5-α]pyrimidin-3-yl]-] | < 1 | < 1
COc1ccc(-c2nc3c(C(=O)N4CCN(C(c5ccccc5)C(C)(C)O)C[C@H]4C)cnn3c(C(F)(F)F)c2C)cc1 (stereo partly drawn) [methanone, [(2R)-4-(2-hydroxy-2-methyl-1-phenylpropyl)-2-methyl-1-piperazinyl][5-(4-methoxyphenyl)-6-methyl-7-(trifluoromethyl)pyrazolo[1,5-α]pyrimidin-3-yl]-] | < 1 | < 1
COc1ccc(-c2nc3c(C(=O)N4CCN(C(CO)c5c(F)ccc(F)c5F)C[C@H]4C)cnn3c(C(F)(F)F)c2C)cc1 (stereo partly drawn) [methanone, [(2R)-4-[2-hydroxy-1-(2,3,6-trifluorophenyl)ethyl]-2-methyl-1-piperazinyl][5-(4-methoxyphenyl)-6-methyl-7-(trifluoromethyl)pyrazolo[1,5-α]pyrimidin-3-yl]-] | < 1 | < 1
CCOc1ccccc1C(CO)N1CCN(C(=O)c2cnn3c(C(F)(F)F)c(C)c(-c4ccc(OC)cc4)nc23)[C@H](C)C1 (stereo partly drawn) [methanone, [(2R)-4-[1-(2-ethoxyphenyl)-2-hydroxyethyl]-2-methyl-1-piperazinyl][5-(4-methoxyphenyl)-6-methyl-7-(trifluoromethyl)pyrazolo[1,5-α]pyrimidin-3-yl]-] | < 1 | < 1

Reference: patent US20090215778A1, “Alpha-substituted Arylmethyl Piperazine Pyrazolo [1,5-alpha]Pyrimidine Amide Derivatives” (priority 2007, published 2009)
